From the Kinase Knowledgebase extract (Sharma et al. 2016) come the findings set out here.

The test deals with MAPK14 (human) (UniProt Q16539). The test is described as follows: Inhibition of MAPK14 Kinase Activity.
MAPK14 (human), sequence (Q16539 whole entry, looked up): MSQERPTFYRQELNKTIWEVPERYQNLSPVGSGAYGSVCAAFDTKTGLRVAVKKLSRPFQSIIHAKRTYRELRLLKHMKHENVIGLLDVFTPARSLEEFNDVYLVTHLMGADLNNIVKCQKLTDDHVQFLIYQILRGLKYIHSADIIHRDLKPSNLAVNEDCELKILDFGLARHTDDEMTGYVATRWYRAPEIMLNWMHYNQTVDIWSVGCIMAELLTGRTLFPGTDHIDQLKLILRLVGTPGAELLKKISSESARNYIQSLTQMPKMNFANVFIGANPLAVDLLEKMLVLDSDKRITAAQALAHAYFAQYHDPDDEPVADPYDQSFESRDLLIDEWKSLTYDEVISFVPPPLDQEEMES

As a reminder, the IC50 is the midpoint of a concentration-inhibition curve. Take `CCNC(=O)c1csc(-c2sc(C)nc2-c2ccc(F)cc2)n1`: the IC50 was at most 1 µM.

Turning to `CC(C)NC(=O)c1csc(-c2oc(CNC(=O)c3ccc4cccc(O)c4n3)nc2-c2ccc(F)cc2)n1`, the IC50 is at most 1 µM.

Molecule `CC(C)NC(=O)c1csc(-c2oc(CNC(=O)c3cc(Cl)c(O)c(Cl)c3)nc2-c2ccc(F)cc2)n1` yielded a half-maximal inhibitory concentration (IC50) of at most 1 µM.

In turn, `CC(C)NC(=O)c1csc(-c2c(-c3ccc(F)cc3)n[nH]c2C2CCN(C(=O)c3cc(O)c(O)c(O)c3)CC2)n1` gave an IC50 of at most 1 µM.

`CC(C)NC(=O)c1csc(-c2c(-c3ccc(F)cc3)n[nH]c2C2CCN(C(=O)c3ncc[nH]3)CC2)n1` had an IC50 of at most 1 µM.

For the molecule `CC(C)NC(=O)c1csc(-c2oc(CNC(=O)CCc3ccccc3O)nc2-c2ccc(F)cc2)n1`, the IC50 is at most 1 µM.

In the case of `CC(C)NC(=O)c1csc(-c2oc(CNC(=O)c3ccccc3C(=O)c3ccc(O)cc3)nc2-c2ccc(F)cc2)n1`, the 50% inhibitory concentration (IC50) was at most 1 µM.

In the case of `CC(C)NC(=O)c1csc(-c2oc(CNC(=O)C(Cc3ccc(O)cc3)NC(=O)OC(C)(C)C)nc2-c2ccc(F)cc2)n1` (stereo not given), the IC50 is at most 1 µM.

For `CC(C)NC(=O)c1csc(-c2oc(CN3CCN(C(=O)c4cnc[nH]4)CC3)nc2-c2ccc(F)cc2)n1`, the IC50 was at most 1 µM.

The molecule `Cc1nc(-c2ccc(F)cc2)c(-c2nc(C(=O)NC(CO)C(C)C)cs2)s1` (stereo not given) yielded an IC50 of at most 1 µM.

Regarding `CC(C)NC(=O)c1csc(-c2oc(CNC(=O)CCc3nc4ccccc4[nH]3)nc2-c2ccc(F)cc2)n1`, the IC50 was at most 1 µM.

`Cc1nc(-c2ccc(F)cc2)c(-c2nc(C(=O)NCc3cccc(C(F)(F)F)c3)cs2)s1` displayed an IC50 of at most 1 µM.

`Cc1nc(-c2ccc(F)cc2)c(-c2nc(C(=O)NC3CCCCC3C)cs2)s1` (stereo not given): the IC50 is at most 1 µM.

Consider `CC(C)NC(=O)c1csc(-c2c(-c3ccc(F)cc3)n[nH]c2C2CCN(C(=O)CO)CC2)n1`, for which the IC50 is at most 1 µM.

In turn, `Cc1onc(-c2ccc(F)c(Cl)c2)c1-c1ccn(C(=O)NC(C)C)n1` returned a half-inhibitory concentration (IC50) of at most 1 µM.

As to `Cc1nc(-c2ccc(F)cc2)c(-c2nc(C(=O)NCCCN(C)c3ccccc3)cs2)s1`, the IC50 is at most 1 µM.

Regarding `CC(C)NC(=O)c1csc(-c2c(-c3ccc(F)cc3)noc2CNC(=O)c2ccncc2Cl)n1`, the concentration for half-maximal inhibition (IC50) is at most 1 µM.

Turning to `CC(C)NC(=O)c1csc(-c2c(-c3ccc(F)cc3)n[nH]c2C2CCN(C(=O)C3CC(O)CN3C(=O)OC(C)(C)C)CC2)n1` (stereo not given), the concentration for half-maximal inhibition (IC50) is at most 1 µM.

As for `Cc1onc(-c2ccc(F)cc2F)c1-c1ccn(C(=O)NC(C)C)n1`, the IC50 was at most 1 µM.

On to `CC(C)NC(=O)c1csc(-c2c(-c3ccc(F)cc3)noc2CNC(=O)c2cccc3ccccc23)n1`, for which the half-inhibitory concentration (IC50) was at most 1 µM.

The molecule `Cc1ccc(O)c(C(=O)N2CCN(Cc3nc(-c4ccc(F)cc4)c(-c4nc(C(=O)NC(C)C)cs4)o3)CC2)c1` came in with a concentration for half-maximal inhibition (IC50) of at most 1 µM.

As for `CC(C)NC(=O)c1csc(-c2c(-c3ccc(F)cc3)n[nH]c2C2CCN(C(=O)C(F)(F)F)CC2)n1`, the IC50 is at most 1 µM.

Molecule `CC(C)NC(=O)c1csc(-c2c(-c3ccc(F)cc3)n[nH]c2C2CCN(C(=O)c3cccc(O)c3)CC2)n1` had a half-inhibitory concentration (IC50) of at most 1 µM.

As for `CC(C)NC(=O)c1csc(-c2c(-c3ccc(F)cc3)noc2CNC(=O)C=Cc2ccccc2F)n1`, the IC50 was at most 1 µM.

In turn, `Cc1nc(-c2ccc(F)cc2)c(-c2nc(C(=O)NCc3cccc(F)c3)cs2)s1` registered a half-maximal inhibitory concentration (IC50) of at most 1 µM.

Consider `CC(C)NC(=O)c1csc(-c2c(-c3ccc(F)cc3)n[nH]c2C2CCN(C(=O)c3cc(Cl)ccn3)CC2)n1`, for which the concentration for half-maximal inhibition (IC50) is at most 1 µM.

Regarding `Cc1onc(-c2ccc(F)cc2)c1-c1ccn(C(=O)NC(C)C)n1`, the half-inhibitory concentration (IC50) was at most 1 µM.

`CC(=O)Oc1ccccc1C(=O)NCc1onc(-c2ccc(F)cc2)c1-c1nc(C(=O)NC(C)C)cs1` showed a concentration for half-maximal inhibition (IC50) of at most 1 µM.

Regarding `CC(C)NC(=O)c1csc(-c2oc(CNC(=O)CC3=CC(Cl)=C(O)OC3)nc2-c2ccc(F)cc2)n1`, the IC50 is at most 1 µM.

As for `CC(C)NC(=O)c1csc(-c2oc(CNC(=O)c3ccccc3[N+](=O)[O-])nc2-c2ccc(F)cc2)n1`, the IC50 was at most 1 µM.

`CCN(CC)c1ccc(C(=O)NCc2nc(-c3ccc(F)cc3)c(-c3nc(C(=O)NC(C)C)cs3)o2)cc1` displayed a 50% inhibitory concentration (IC50) of at most 1 µM.

In turn, `CC(C)NC(=O)c1csc(-c2oc(CNC(=O)c3cc(Cl)ccc3Cl)nc2-c2ccc(F)cc2)n1` yielded an IC50 of at most 1 µM.

`Cc1nc(-c2ccc(F)cc2)c(-c2nc(C(=O)NCCc3cccc(Cl)c3)cs2)s1` gave a concentration for half-maximal inhibition (IC50) of at most 1 µM.

In turn, `CCCCOc1ccc(C(=O)N2CCN(Cc3nc(-c4ccc(F)cc4)c(-c4nc(C(=O)NC(C)C)cs4)o3)CC2)cc1` returned a half-maximal inhibitory concentration (IC50) of at most 1 µM.

In the case of `Cc1nc(-c2ccc(F)cc2)c(-c2nc(C(=O)NCCc3ccc(O)cc3)cs2)s1`, the half-maximal inhibitory concentration (IC50) was at most 1 µM.

As for `CCNC(=O)c1csc(-c2c(-c3ccc(F)cc3)n[nH]c2C)n1`, the IC50 is at most 1 µM.

`Cc1onc(-c2ccc(F)cc2)c1-c1nc(C(=O)NC(C)C)cs1`: the IC50 is at most 1 µM.

In turn, `CC(C)NC(=O)c1csc(-c2c(-c3ccc(F)cc3)n[nH]c2C2CCN(C(=O)c3ccc(C=O)cc3)CC2)n1` came in with an IC50 of at most 1 µM.

For the molecule `CC(=O)Nc1ccc(NC(=O)c2csc(-c3sc(C)nc3-c3ccc(F)cc3)n2)cn1`, the IC50 was at most 1 µM.

Molecule `CCC(CO)NCc1nc(-c2ccc(F)cc2)c(-c2nc(C(=O)NC(C)C)cs2)o1` (stereo not given) displayed an IC50 of at most 1 µM.

`Cc1nc(-c2ccc(F)cc2)c(-c2nc(C(=O)NCc3cccs3)cs2)s1` displayed an IC50 of at most 1 µM.

`CC(C)NC(=O)c1csc(-c2c(-c3ccc(F)cc3)noc2CNC(=O)CC#N)n1` displayed an IC50 of at most 1 µM.

`CC(C)NC(=O)c1csc(-c2oc(CN3CCOCC3)nc2-c2ccc(F)cc2)n1` gave a half-inhibitory concentration (IC50) of at most 1 µM.

Take `Cc1nc(-c2ccc(F)cc2)c(-c2nc(C(=O)NCc3ccco3)cs2)s1`: the half-maximal inhibitory concentration (IC50) was at most 1 µM.

With `Cc1onc(-c2ccc(Cl)cc2)c1-c1ccn(C(=O)NC2CCCCC2)n1`, the half-maximal inhibitory concentration (IC50) was at most 1 µM.

On to `Cc1onc(-c2ccc(F)cc2Cl)c1-c1ccn(C(=O)NC(C)C)n1`, for which the IC50 is at most 1 µM.

With `Cc1nc(-c2ccc(F)cc2)c(-c2nc(C(=O)NCCCO)cs2)s1`, the IC50 is at most 1 µM.

`CC(C)NC(=O)c1csc(-c2oc(CNCc3ccccn3)nc2-c2ccc(F)cc2)n1` showed an IC50 of at most 1 µM.

Molecule `CC(C)NC(=O)c1csc(-c2oc(CNC(=O)c3cccc(O)c3O)nc2-c2ccc(F)cc2)n1` had an IC50 of at most 1 µM.

Turning to `CC(C)NC(=O)c1csc(-c2oc(CN3CCN(C(=O)C4CCCN4C(=O)OC(C)(C)C)CC3)nc2-c2ccc(F)cc2)n1` (stereo not given), the IC50 is at most 1 µM.

On to `Cc1ccc(CNC(=O)c2csc(-c3sc(C)nc3-c3ccc(F)cc3)n2)cc1`, for which the half-maximal inhibitory concentration (IC50) was at most 1 µM.

On to `CC(=O)c1cccc(NCc2onc(-c3ccc(F)cc3)c2-c2nc(C(=O)NC(C)C)cs2)c1`, for which the IC50 is at most 1 µM.

Take `CC(C)NC(=O)c1csc(-c2oc(CNC(=O)C(F)(F)F)nc2-c2ccc(F)cc2)n1`: the 50% inhibitory concentration (IC50) was at most 1 µM.

`CC(=O)Nc1cccc(C(=O)N2CCC(c3[nH]nc(-c4ccc(F)cc4)c3-c3nc(C(=O)NC(C)C)cs3)CC2)c1` gave an IC50 of at most 1 µM.

In the case of `Cc1nc(-c2ccc(F)cc2)c(-c2nc(C(=O)NCc3ccc(N(C)C)cc3)cs2)s1`, the IC50 was at most 1 µM.

On to `CC(C)NC(=O)c1csc(-c2oc(CNCCc3ccc(S(N)(=O)=O)cc3)nc2-c2ccc(F)cc2)n1`, for which the half-inhibitory concentration (IC50) is at most 1 µM.

Molecule `CC1=C(CCC(=O)N2CCN(Cc3nc(-c4ccc(F)cc4)c(-c4nc(C(=O)NC(C)C)cs4)o3)CC2)C=CCO1` registered a 50% inhibitory concentration (IC50) of at most 1 µM.

`Cc1nc(-c2ccc(F)cc2)c(-c2nc(C(=O)NC3CCCC3)cs2)s1` displayed an IC50 of at most 1 µM.

`CC(C)NC(=O)c1csc(-c2oc(CNC(=O)c3cc(O)ccc3[N+](=O)[O-])nc2-c2ccc(F)cc2)n1` gave an IC50 of at most 1 µM.

Molecule `Cc1cccc(CCC(=O)N2CCN(Cc3nc(-c4ccc(F)cc4)c(-c4nc(C(=O)NC(C)C)cs4)o3)CC2)c1` returned a 50% inhibitory concentration (IC50) of at most 1 µM.

Turning to `CC(C)NC(=O)c1csc(-c2oc(CNC(=O)Cc3cccc4ccccc34)nc2-c2ccc(F)cc2)n1`, the IC50 is at most 1 µM.

As for `Cc1nc(-c2ccc(F)cc2)c(-c2nc(C(=O)NCc3ccc(C)c(C)c3)cs2)s1`, the IC50 is at most 1 µM.

In turn, `Cc1nc(-c2ccc(F)cc2)c(-c2nc(C(=O)NC3CCCCCC3)cs2)s1` gave an IC50 of at most 1 µM.

For the molecule `Cc1onc(-c2ccc(Cl)cc2)c1-c1ccn(C(=O)NC(C)C)n1`, the IC50 is at most 1 µM.

As for `Cc1nc(Br)sc1C(=O)NCc1nc(-c2ccc(F)cc2)c(-c2nc(C(=O)NC(C)C)cs2)o1`, the IC50 was at most 1 µM.

Molecule `O=C(NC1CCCCC1)c1csc(-c2c(-c3ccc(F)cc3)ncn2C2CCNCC2)n1` yielded an IC50 of at most 1 µM.

`Cc1ccccc1C(=O)N1CCC(c2[nH]nc(-c3ccc(F)cc3)c2-c2nc(C(=O)NC(C)C)cs2)CC1` had an IC50 of at most 1 µM.

Regarding `Cc1cccc(C(=O)NCc2nc(-c3ccc(F)cc3)c(-c3nc(C(=O)NC(C)C)cs3)o2)c1[N+](=O)[O-]`, the IC50 is at most 1 µM.

For `COCCOCC(=O)N1CCC(c2[nH]nc(-c3ccc(F)cc3)c2-c2nc(C(=O)NC(C)C)cs2)CC1`, the IC50 is at most 1 µM.

On to `CC(C)NC(=O)c1csc(-c2c(-c3ccc(F)cc3)n[nH]c2C2CCN(C(=O)c3cccnc3Cl)CC2)n1`, for which the half-maximal inhibitory concentration (IC50) was at most 1 µM.

Take `COc1ccc(C(=O)N2CCN(Cc3nc(-c4ccc(F)cc4)c(-c4nc(C(=O)NC(C)C)cs4)o3)CC2)cc1O`: the IC50 is at most 1 µM.

With `CCOC(=O)CC(C)NC(=O)c1csc(-c2sc(C)nc2-c2ccc(F)cc2)n1` (stereo not given), the 50% inhibitory concentration (IC50) was at most 1 µM.

For `Cc1nc(-c2ccc(F)cc2)c(-c2nc(C(=O)NCCCCO)cs2)s1`, the IC50 was at most 1 µM.

In turn, `O=C(NC1CCCC1)c1csc(-c2c(-c3ccc(F)cc3)n[nH]c2C2CCNCC2)n1` had a 50% inhibitory concentration (IC50) of at most 1 µM.

As to `CCCC(C)NC(=O)c1csc(-c2c(-c3ccc(F)cc3)n[nH]c2C2CCNCC2)n1` (stereo not given), the half-maximal inhibitory concentration (IC50) was at most 1 µM.

The molecule `CC(C)NC(=O)c1csc(-c2c(-c3ccc(F)cc3)n[nH]c2C2CCN(C(=O)[C@H](C)O)CC2)n1` yielded an IC50 of at most 1 µM.

Molecule `Cc1cccc([N+](=O)[O-])c1C(=O)N1CCN(Cc2nc(-c3ccc(F)cc3)c(-c3nc(C(=O)NC(C)C)cs3)o2)CC1` had an IC50 of at most 1 µM.

In turn, `Cc1cc(C(=O)N2CCN(Cc3nc(-c4ccc(F)cc4)c(-c4nc(C(=O)NC(C)C)cs4)o3)CC2)n[nH]1` returned an IC50 of at most 1 µM.

`Cc1[nH]nc(-c2ccc(F)cc2)c1-c1nc(C(=O)NCc2ccccn2)cs1` displayed a half-inhibitory concentration (IC50) of at most 1 µM.

`CCOC(=O)CC(=O)N1CCN(Cc2nc(-c3ccc(F)cc3)c(-c3nc(C(=O)NC(C)C)cs3)o2)CC1` displayed an IC50 of at most 1 µM.
